According to patent publication US9279003B2, “Analogs of sodium channel peptide toxin” (priority 2010, dated 2016):
Where a SMILES comes first, the peptide text is derived from it. Bridges are numbered along the chain shown (N, C = ends). [ ]: non-standard residue; d: D form. NMeL = CN[C@@H](CC(C)C)C(=O)O; αMeL = CC(C)C[C@](C)(N)C(=O)O

Experiments:
human Nav1.7 = human Nav1.7 (Homo sapiens, UniProt Q15858); experiment: cell-based; type: cell-based
Nav1.2 (rBIIa) = type: cell-based, rat

human Nav1.7, sequence (Q15858 other isoform, or with tags, fused parts or gaps): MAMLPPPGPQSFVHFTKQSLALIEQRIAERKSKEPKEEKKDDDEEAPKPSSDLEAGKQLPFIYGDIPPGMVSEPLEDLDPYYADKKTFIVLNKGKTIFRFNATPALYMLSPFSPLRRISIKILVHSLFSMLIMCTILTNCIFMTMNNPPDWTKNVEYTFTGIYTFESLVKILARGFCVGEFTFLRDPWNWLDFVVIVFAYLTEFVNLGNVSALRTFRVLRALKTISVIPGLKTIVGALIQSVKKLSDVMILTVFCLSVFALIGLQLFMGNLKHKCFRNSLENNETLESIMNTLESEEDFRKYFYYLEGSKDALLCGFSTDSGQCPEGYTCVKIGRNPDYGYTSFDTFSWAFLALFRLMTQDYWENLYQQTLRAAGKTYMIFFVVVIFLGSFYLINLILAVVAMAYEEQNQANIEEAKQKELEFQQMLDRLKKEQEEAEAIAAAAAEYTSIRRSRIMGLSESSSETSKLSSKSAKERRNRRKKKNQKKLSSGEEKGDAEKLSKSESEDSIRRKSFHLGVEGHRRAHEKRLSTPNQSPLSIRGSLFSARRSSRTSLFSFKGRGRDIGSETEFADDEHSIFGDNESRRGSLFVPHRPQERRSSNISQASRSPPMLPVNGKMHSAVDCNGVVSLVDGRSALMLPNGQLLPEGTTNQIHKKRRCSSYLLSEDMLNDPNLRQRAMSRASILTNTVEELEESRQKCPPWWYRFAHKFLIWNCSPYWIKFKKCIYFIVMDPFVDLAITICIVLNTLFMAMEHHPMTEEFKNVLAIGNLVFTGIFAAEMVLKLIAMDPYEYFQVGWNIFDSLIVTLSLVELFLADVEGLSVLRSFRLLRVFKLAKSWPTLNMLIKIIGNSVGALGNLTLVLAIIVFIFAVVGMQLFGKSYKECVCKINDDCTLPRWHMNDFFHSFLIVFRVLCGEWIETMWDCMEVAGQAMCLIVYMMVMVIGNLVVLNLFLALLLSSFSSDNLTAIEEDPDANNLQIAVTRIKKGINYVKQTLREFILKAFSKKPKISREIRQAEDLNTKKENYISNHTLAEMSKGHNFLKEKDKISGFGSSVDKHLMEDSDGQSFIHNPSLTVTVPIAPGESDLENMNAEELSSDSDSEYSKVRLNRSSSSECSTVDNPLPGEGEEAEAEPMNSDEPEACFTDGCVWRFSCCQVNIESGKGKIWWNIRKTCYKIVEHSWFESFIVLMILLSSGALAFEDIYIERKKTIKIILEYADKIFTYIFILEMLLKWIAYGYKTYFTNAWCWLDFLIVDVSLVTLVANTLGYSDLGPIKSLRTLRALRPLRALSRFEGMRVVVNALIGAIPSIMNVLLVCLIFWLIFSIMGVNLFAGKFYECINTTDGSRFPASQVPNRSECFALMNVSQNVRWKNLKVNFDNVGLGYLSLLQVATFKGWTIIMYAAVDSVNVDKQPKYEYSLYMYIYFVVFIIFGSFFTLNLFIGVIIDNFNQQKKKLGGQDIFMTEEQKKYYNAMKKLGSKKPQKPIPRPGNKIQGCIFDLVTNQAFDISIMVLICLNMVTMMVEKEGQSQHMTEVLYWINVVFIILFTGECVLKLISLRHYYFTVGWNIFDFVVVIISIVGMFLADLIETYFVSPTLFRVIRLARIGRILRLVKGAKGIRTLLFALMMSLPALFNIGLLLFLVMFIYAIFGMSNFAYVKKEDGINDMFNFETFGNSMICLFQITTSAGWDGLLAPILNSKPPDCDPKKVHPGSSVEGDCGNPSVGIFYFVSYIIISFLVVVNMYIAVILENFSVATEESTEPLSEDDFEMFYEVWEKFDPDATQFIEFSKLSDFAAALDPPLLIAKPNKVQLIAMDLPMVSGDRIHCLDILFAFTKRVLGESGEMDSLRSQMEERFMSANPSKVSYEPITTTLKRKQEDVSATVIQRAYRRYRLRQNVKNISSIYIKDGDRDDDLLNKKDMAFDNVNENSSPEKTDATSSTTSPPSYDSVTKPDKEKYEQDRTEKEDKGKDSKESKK

Compound `CC[C@H](C)[C@H](NC(=O)[C@H](CCCCN)NC(=O)[C@H](CCCCN)NC(=O)[C@H](CCCCN)NC(=O)[C@@H]1CSSC[C@@H]2NC(=O)[C@H](CCCCN)NC(=O)[C@H](CCCNC(=N)N)NC(=O)[C@H](C)NC(=O)[C@H](CO)NC(=O)[C@H](CC(=O)O)NC(=O)[C@@H]3CSSC[C@H](NC(=O)[C@H](C(C)C)NC(=O)[C@H](CC(C)C)NC(=O)CNC(=O)[C@H](CCC(=O)O)NC(=O)[C@H](CSSC[C@H](NC(=O)[C@@H](N)Cc4ccc(O)cc4)C(=O)N[C@@H](CCC(N)=O)C(=O)N[C@@H](CCCCN)C(=O)N[C@@H](Cc4c[nH]c5ccccc45)C(=O)N[C@@H](CCSC)C(=O)N[C@@H](Cc4c[nH]c5ccccc45)C(=O)N[C@@H]([C@@H](C)O)C(=O)N3)NC2=O)C(=O)N[C@@H](CCCNC(=N)N)C(=O)N[C@@H](CC(C)C)C(=O)N[C@@H](Cc2c[nH]c3ccccc23)C(=O)N1)C(=O)N[C@@H](CC(C)C)C(=O)N[C@@H](Cc1c[nH]c2ccccc12)C(=O)O` [compound 9] (H-YCQKWMWTCDSARKCCEGLVCRLWCKKKILW-OH; disulfide 2-16, 9-21, 15-25) has an IC50 (human Nav1.7) of 0.001 µM and an IC50 (Nav1.2 (rBIIa)) of 0.033 µM.
For `CC[C@H](C)[C@H](NC(=O)[C@H](CC(C)C)NC(=O)[C@H](CCCCN)NC(=O)[C@H](CCCCN)NC(=O)[C@H](CCCCN)NC(=O)[C@@H]1CSSC[C@@H]2NC(=O)[C@H](CCCCN)NC(=O)[C@H](CCCNC(=N)N)NC(=O)[C@H](C)NC(=O)[C@H](CO)NC(=O)[C@H](CC(=O)O)NC(=O)[C@@H]3CSSC[C@H](NC(=O)[C@H](C(C)C)NC(=O)[C@H](CC(C)C)NC(=O)CNC(=O)[C@H](CCC(=O)O)NC(=O)[C@H](CSSC[C@H](NC(=O)[C@@H](N)Cc4ccc(O)cc4)C(=O)N[C@@H](CCC(N)=O)C(=O)N[C@@H](CCCCN)C(=O)N[C@@H](Cc4c[nH]c5ccccc45)C(=O)N[C@@H](CCSC)C(=O)N[C@@H](Cc4c[nH]c5ccccc45)C(=O)N[C@@H]([C@@H](C)O)C(=O)N3)NC2=O)C(=O)N[C@@H](CCCNC(=N)N)C(=O)N[C@@H](CC(C)C)C(=O)N[C@@H](Cc2c[nH]c3ccccc23)C(=O)N1)C(=O)O` [compound 10] (H-YCQKWMWTCDSARKCCEGLVCRLWCKKKLI-OH; disulfide 2-16, 9-21, 15-25), the IC50 (human Nav1.7) was 0.004 µM and the IC50 (Nav1.2 (rBIIa)) was 0.098 ± 0.01 µM.
`CC[C@H](C)[C@H](NC(=O)[C@](C)(CC(C)C)NC(=O)[C@H](CCCCN)NC(=O)[C@H](CCCCN)NC(=O)[C@H](CCCCN)NC(=O)[C@@H]1CSSC[C@@H]2NC(=O)[C@H](CCCCN)NC(=O)[C@H](CCCNC(=N)N)NC(=O)[C@H](C)NC(=O)[C@H](CO)NC(=O)[C@H](CC(=O)O)NC(=O)[C@@H]3CSSC[C@H](NC(=O)[C@H](C(C)C)NC(=O)[C@H](CC(C)C)NC(=O)CNC(=O)[C@H](CCC(=O)O)NC(=O)[C@H](CSSC[C@H](NC(=O)[C@@H](N)Cc4ccc(O)cc4)C(=O)N[C@@H](CCC(N)=O)C(=O)N[C@@H](CCCCN)C(=O)N[C@@H](Cc4c[nH]c5ccccc45)C(=O)N[C@@H](CCSC)C(=O)N[C@@H](Cc4c[nH]c5ccccc45)C(=O)N[C@@H]([C@@H](C)O)C(=O)N3)NC2=O)C(=O)N[C@@H](CCCNC(=N)N)C(=O)N[C@@H](CC(C)C)C(=O)N[C@@H](Cc2c[nH]c3ccccc23)C(=O)N1)C(=O)O` [compound 11] (H-YCQKWMWTCDSARKCCEGLVCRLWCKKK[αMeL]I-OH; disulfide 2-16, 9-21, 15-25) was tested, and the IC50 (human Nav1.7) was 0.01 ± 0.001 µM and the IC50 (Nav1.2 (rBIIa)) was 0.342 ± 0.073 µM.
`CC[C@H](C)[C@H](NC(=O)[C@H](CC(C)C)N(C)C(=O)[C@H](CCCCN)NC(=O)[C@H](CCCCN)NC(=O)[C@H](CCCCN)NC(=O)[C@@H]1CSSC[C@@H]2NC(=O)[C@H](CCCCN)NC(=O)[C@H](CCCNC(=N)N)NC(=O)[C@H](C)NC(=O)[C@H](CO)NC(=O)[C@H](CC(=O)O)NC(=O)[C@@H]3CSSC[C@H](NC(=O)[C@H](C(C)C)NC(=O)[C@H](CC(C)C)NC(=O)CNC(=O)[C@H](CCC(=O)O)NC(=O)[C@H](CSSC[C@H](NC(=O)[C@@H](N)Cc4ccc(O)cc4)C(=O)N[C@@H](CCC(N)=O)C(=O)N[C@@H](CCCCN)C(=O)N[C@@H](Cc4c[nH]c5ccccc45)C(=O)N[C@@H](CCSC)C(=O)N[C@@H](Cc4c[nH]c5ccccc45)C(=O)N[C@@H]([C@@H](C)O)C(=O)N3)NC2=O)C(=O)N[C@@H](CCCNC(=N)N)C(=O)N[C@@H](CC(C)C)C(=O)N[C@@H](Cc2c[nH]c3ccccc23)C(=O)N1)C(=O)O` [compound 12] (H-YCQKWMWTCDSARKCCEGLVCRLWCKKK[NMeL]I-OH; disulfide 2-16, 9-21, 15-25) showed an IC50 (human Nav1.7) of 0.528 ± 0.1 µM and an IC50 (Nav1.2 (rBIIa)) of 0.138 ± 0.04 µM.
For `CC[C@H](C)[C@H](NC(=O)[C@H](CCCCN)NC(=O)[C@H](CCCCN)NC(=O)[C@@H]1CSSC[C@@H]2NC(=O)[C@H](CCCCN)NC(=O)[C@H](CCCNC(=N)N)NC(=O)[C@H](C)NC(=O)[C@H](CO)NC(=O)[C@H](CC(=O)O)NC(=O)[C@@H]3CSSC[C@H](NC(=O)[C@H](C(C)C)NC(=O)[C@H](CC(C)C)NC(=O)CNC(=O)[C@H](CCC(=O)O)NC(=O)[C@H](CSSC[C@H](NC(=O)[C@@H](N)Cc4ccc(O)cc4)C(=O)N[C@@H](CCC(N)=O)C(=O)N[C@@H](CCCCN)C(=O)N[C@@H](Cc4c[nH]c5ccccc45)C(=O)N[C@@H](CCSC)C(=O)N[C@@H](Cc4c[nH]c5ccccc45)C(=O)N[C@@H]([C@@H](C)O)C(=O)N3)NC2=O)C(=O)N[C@@H](CCCNC(=N)N)C(=O)N[C@@H](CC(C)C)C(=O)N[C@@H](Cc2c[nH]c3ccccc23)C(=O)N1)C(=O)N[C@@H](CC(C)C)C(=O)N[C@@H](Cc1c[nH]c2ccccc12)C(=O)O` [compound 13] (H-YCQKWMWTCDSARKCCEGLVCRLWCKKILW-OH; disulfide 2-16, 9-21, 15-25), the IC50 (human Nav1.7) was 0.003 µM and the IC50 (Nav1.2 (rBIIa)) was 0.05 ± 0.01 µM.
`CC[C@H](C)[C@H](NC(=O)[C@H](CCCCN)NC(=O)[C@H](CCCCN)NC(=O)[C@@H]1CSSC[C@@H]2NC(=O)[C@H](CCCCN)NC(=O)[C@H](CCCNC(=N)N)NC(=O)[C@H](C)NC(=O)[C@H](CO)NC(=O)[C@H](CC(=O)O)NC(=O)[C@@H]3CSSC[C@H](NC(=O)[C@H](C(C)C)NC(=O)[C@H](CC(C)C)NC(=O)CNC(=O)[C@H](CCC(=O)O)NC(=O)[C@H](CSSC[C@H](NC(=O)[C@@H](N)Cc4ccc(O)cc4)C(=O)N[C@@H](CCC(N)=O)C(=O)N[C@@H](CCCCN)C(=O)N[C@@H](Cc4c[nH]c5ccccc45)C(=O)N[C@@H](CCSC)C(=O)N[C@@H](Cc4c[nH]c5ccccc45)C(=O)N[C@@H]([C@@H](C)O)C(=O)N3)NC2=O)C(=O)N[C@@H](CCCNC(=N)N)C(=O)N[C@@H](CC(C)C)C(=O)N[C@@H](Cc2c[nH]c3ccccc23)C(=O)N1)C(=O)N[C@H](C(=O)N[C@@H](Cc1c[nH]c2ccccc12)C(=O)O)[C@@H](C)CC` [compound 14] (H-YCQKWMWTCDSARKCCEGLVCRLWCKKIIW-OH; disulfide 2-16, 9-21, 15-25) gave an IC50 (human Nav1.7) of 0.005 ± 0.001 µM and an IC50 (Nav1.2 (rBIIa)) of 0.045 µM.
